Measured values reported in the supplement of paper PMC10307832.

Assays:
Assay in all cases: relative viability (nuclei count vs DMSO), 5 days (fraction); higher = more cells survive
201T = tested on: 201T
Procedure, shortened: (§1)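 One day after seeding in 1536-well plates, lung cancer cell lines were dosed by pin tool. Dosing was either single-drug or a fixed anchor-drug dose plus five library-drug doses (not always all listed) in √10 steps. After 5 days, nuclei were stained in one fix-and-stain step and counted on 4× images, and relative viability is the nuclei count of treated wells over that of vehicle wells, given as the median of duplicate plates.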

A-427 = tested on: A-427
Procedure, shortened: as §1

ABC-1 = tested on: ABC-1
Procedure, shortened: as §1

BEN = tested on: BEN
Procedure, shortened: as §1

CAL-12T = tested on: CAL-12T
Procedure, shortened: as §1

H3255 = tested on: H3255
Procedure, shortened: as §1

HCC-15 = tested on: HCC-15
Procedure, shortened: as §1

LC-2-ad = tested on: LC-2-ad
Procedure, shortened: as §1

LCLC-97TM1 = tested on: LCLC-97TM1
Procedure, shortened: as §1

NCI-H1650 = tested on: NCI-H1650
Procedure, shortened: as §1

NCI-H1651 = tested on: NCI-H1651
Procedure, shortened: as §1

NCI-H1792 = tested on: NCI-H1792
Procedure, shortened: as §1

COc1cc(N2CCC(C(N)=O)CC2)ccc1Nc1nc(N)c(Cl)c(Nc2ccccc2S(=O)(=O)C(C)C)n1 [HG-5-88-01] + CS(=O)(=O)CCNCc1ccc(-c2ccc3ncnc(Nc4ccc(OCc5cccc(F)c5)c(Cl)c4)c3c2)o1 [Lapatinib] (partner 2 µM)
relative viability (201T; first compound 0.04 µM): 1.03 | relative viability (201T; first compound 0.1265 µM): 0.922 | relative viability (201T; first compound 0.4 µM): 1.01 | relative viability (201T; first compound 1.265 µM): 1.07 | relative viability (201T; first compound 4 µM): 1.14 | relative viability (A-427; first compound 0.04 µM): 0.976 | relative viability (A-427; first compound 0.1265 µM): 0.984 | relative viability (A-427; first compound 0.4 µM): 0.978 | relative viability (A-427; first compound 1.265 µM): 1.04 | relative viability (A-427; first compound 4 µM): 0.589 | relative viability (ABC-1; first compound 0.04 µM): 1.2 | relative viability (ABC-1; first compound 0.1265 µM): 1.12 | relative viability (ABC-1; first compound 0.4 µM): 0.996 | relative viability (ABC-1; first compound 1.265 µM): 0.624 | relative viability (ABC-1; first compound 4 µM): 1.32 | relative viability (BEN; first compound 0.04 µM): 0.817 | relative viability (BEN; first compound 0.1265 µM): 0.743 | relative viability (BEN; first compound 0.4 µM): 0.66 | relative viability (BEN; first compound 1.265 µM): 0.586 | relative viability (BEN; first compound 4 µM): 0.545 | relative viability (CAL-12T; first compound 0.04 µM): 0.618 | relative viability (CAL-12T; first compound 0.1265 µM): 0.698 | relative viability (CAL-12T; first compound 0.4 µM): 0.641 | relative viability (CAL-12T; first compound 1.265 µM): 0.32 | relative viability (CAL-12T; first compound 4 µM): 0.359 | relative viability (H3255; first compound 0.04 µM): 0.25 | relative viability (H3255; first compound 0.1265 µM): 0.249 | relative viability (H3255; first compound 0.4 µM): 0.244 | relative viability (H3255; first compound 4 µM): 0.212 | relative viability (HCC-15; first compound 0.04 µM): 0.878 | relative viability (HCC-15; first compound 0.1265 µM): 0.83 | relative viability (HCC-15; first compound 0.4 µM): 0.792 | relative viability (HCC-15; first compound 1.265 µM): 0.894 | relative viability (HCC-15; first compound 4 µM): 0.449 | relative viability (LC-2-ad; first compound 0.04 µM): 0.993 | relative viability (LC-2-ad; first compound 0.1265 µM): 1.02 | relative viability (LC-2-ad; first compound 0.4 µM): 0.876 | relative viability (LC-2-ad; first compound 1.265 µM): 0.908 | relative viability (LC-2-ad; first compound 4 µM): 0.629 | relative viability (LCLC-97TM1; first compound 0.04 µM): 0.999 | relative viability (LCLC-97TM1; first compound 0.1265 µM): 0.95 | relative viability (LCLC-97TM1; first compound 0.4 µM): 0.471 | relative viability (LCLC-97TM1; first compound 1.265 µM): 0.683 | relative viability (LCLC-97TM1; first compound 4 µM): 0.301 | relative viability (NCI-H1650; first compound 0.04 µM): 0.785 | relative viability (NCI-H1650; first compound 0.1265 µM): 0.869 | relative viability (NCI-H1650; first compound 0.4 µM): 0.928 | relative viability (NCI-H1650; first compound 1.265 µM): 0.799 | relative viability (NCI-H1650; first compound 4 µM): 0.29 | relative viability (NCI-H1651; first compound 0.04 µM): 0.955 | relative viability (NCI-H1651; first compound 0.1265 µM): 1 | relative viability (NCI-H1651; first compound 0.4 µM): 0.796 | relative viability (NCI-H1651; first compound 1.265 µM): 0.863 | relative viability (NCI-H1651; first compound 4 µM): 0.882 | relative viability (NCI-H1792; first compound 0.04 µM): 0.792 | relative viability (NCI-H1792; first compound 0.1265 µM): 0.892
